Species on record: Rattus norvegicus
Test: DrugMatrix - Regimen: Daily Repeat
Format: toxicity, organism-based, Sprague-Dawley
Parameters: regimen Daily Repeat, gender Male, age 6-8 weeks
Settings: in vivo, po, route oral GAVAGE, […]; for ABSOLUTE BASOPHIL / ABSOLUTE EOSINOPHIL / ABSOLUTE LYMPHOCYTE / ABSOLUTE MONOCYTE / ABSOLUTE SEGMENTED NEUTROPHIL / BASOPHIL / EOSINOPHIL / ERYTHROCYTE COUNT / HEMATOCRIT / HEMOGLOBIN / LEUKOCYTE COUNT / LYMPHOCYTE / MEAN CORPUSCULAR HEMOGLOBIN / MEAN CORPUSCULAR HEMOGLOBIN CONCENTRATION / MEAN CORPUSCULAR VOLUME / MONOCYTE / NEUTROPHIL / NUCLEATED RED BLOOD CELLS / PLATELET COUNT: tissue Blood; for ALANINE AMINOTRANSFERASE / ALBUMIN / ALKALINE PHOSPHATASE / ASPARTATE AMINOTRANSFERASE / BLOOD UREA NITROGEN / CARBON DIOXIDE / CHLORIDE / CHOLESTEROL / CREATINE PHOSPHOKINASE / CREATININE / GLUCOSE / LACTATE DEHYDROGENASE / LIPASE / PHOSPHORUS / POTASSIUM / SODIUM / TOTAL BILIRUBIN / TOTAL PROTEIN / URIC ACID: tissue Plasma
[1] = 0 mg/kg, 72 h, dose level Control, time 3 day
[2] = 0 mg/kg, 120 h, dose level Control, time 5 day
[3] = 300 mg/kg, 72 h, dose level High, time 3 day

Structure (SMILES): CC(C)c1c(C(=O)Nc2ccccc2)c(-c2ccccc2)c(-c2ccc(F)cc2)n1CC[C@@H](O)C[C@@H](O)CC(=O)O [ATORVASTATIN]
- ABSOLUTE BASOPHIL [1]: 0 CELLS/uL
- ABSOLUTE EOSINOPHIL [1]: 14 CELLS/uL
- ABSOLUTE LYMPHOCYTE [1]: 11144.67 CELLS/uL
- ABSOLUTE MONOCYTE [1]: 22.5 CELLS/uL
- ABSOLUTE SEGMENTED NEUTROPHIL [1]: 535.5 CELLS/uL
- BASOPHIL [1]: 0%
- EOSINOPHIL [1]: 0.17%
- ERYTHROCYTE COUNT [1]: 5.08 x10E6/uL
- HEMATOCRIT [1]: 32.32%
- HEMOGLOBIN [1]: 12.87 G/DL
- LEUKOCYTE COUNT [1]: 11.72 x10E3/uL
- LYMPHOCYTE [1]: 94.67%
- MEAN CORPUSCULAR HEMOGLOBIN [1]: 25.37 pg
- MEAN CORPUSCULAR HEMOGLOBIN CONCENTRATION [1]: 39.85 G/DL
- MEAN CORPUSCULAR VOLUME [1]: 63.58 fL
- MONOCYTE [1]: 0.17%
- NEUTROPHIL [1]: 5%
- NUCLEATED RED BLOOD CELLS [1]: 0 /100WBC
- PLATELET COUNT [1]: 1084 x10E3/uL
- ALANINE AMINOTRANSFERASE [1]: 67.5 u/L
- ALBUMIN [1]: 4.02 G/DL
- ALKALINE PHOSPHATASE [1]: 374.17 u/L
- ASPARTATE AMINOTRANSFERASE [1]: 83.5 u/L
- BLOOD UREA NITROGEN [1]: 14.5 mg/dL
- CARBON DIOXIDE [1]: 30 mmol/L
- CHLORIDE [1]: 100.5 MEQ/L
- CHOLESTEROL [1]: 71.33 mg/dL
- CREATINE PHOSPHOKINASE [1]: 268.33 u/L
- CREATININE [1]: 0.16 mg/dL
- GLUCOSE [1]: 170.5 mg/dL
- LACTATE DEHYDROGENASE [1]: 81.17 u/L
- LIPASE [1]: 16.67 u/L
- PHOSPHORUS [1]: 10.07 mg/dL
- POTASSIUM [1]: 5.03 MEQ/L
- SODIUM [1]: 142.92 MEQ/L
- TOTAL BILIRUBIN [1]: 0.17 mg/dL
- TOTAL PROTEIN [1]: 5.63 G/DL
- URIC ACID [1]: 0.5 mg/dL
- ABSOLUTE BASOPHIL [2]: 0 CELLS/uL
- ABSOLUTE EOSINOPHIL [2]: 37.5 CELLS/uL
- ABSOLUTE LYMPHOCYTE [2]: 8049.5 CELLS/uL
- ABSOLUTE MONOCYTE [2]: 82.83 CELLS/uL
- ABSOLUTE SEGMENTED NEUTROPHIL [2]: 646.83 CELLS/uL
- BASOPHIL [2]: 0%
- EOSINOPHIL [2]: 0.5%
- ERYTHROCYTE COUNT [2]: 5.36 x10E6/uL
- HEMATOCRIT [2]: 33.9%
- HEMOGLOBIN [2]: 13.02 G/DL
- LEUKOCYTE COUNT [2]: 8.82 x10E3/uL
- LYMPHOCYTE [2]: 90.17%
- MEAN CORPUSCULAR HEMOGLOBIN [2]: 24.32 pg
- MEAN CORPUSCULAR HEMOGLOBIN CONCENTRATION [2]: 38.42 G/DL
- MEAN CORPUSCULAR VOLUME [2]: 63.32 fL
- MONOCYTE [2]: 1.17%
- NEUTROPHIL [2]: 8.17%
- NUCLEATED RED BLOOD CELLS [2]: 0.17 /100WBC
- PLATELET COUNT [2]: 1231.5 x10E3/uL
- ALANINE AMINOTRANSFERASE [2]: 62 u/L
- ALBUMIN [2]: 3.97 G/DL
- ALKALINE PHOSPHATASE [2]: 303.67 u/L
- ASPARTATE AMINOTRANSFERASE [2]: 84.5 u/L
- BLOOD UREA NITROGEN [2]: 14.83 mg/dL
- CARBON DIOXIDE [2]: 31.83 mmol/L
- CHLORIDE [2]: 97 MEQ/L
- CHOLESTEROL [2]: 68.83 mg/dL
- CREATINE PHOSPHOKINASE [2]: 411.33 u/L
- CREATININE [2]: 0.16 mg/dL
- GLUCOSE [2]: 170.17 mg/dL
- LACTATE DEHYDROGENASE [2]: 88.5 u/L
- LIPASE [2]: 9.5 u/L
- PHOSPHORUS [2]: 9.98 mg/dL
- POTASSIUM [2]: 5.72 MEQ/L
- SODIUM [2]: 141.62 MEQ/L
- TOTAL BILIRUBIN [2]: 0.1 mg/dL
- TOTAL PROTEIN [2]: 5.67 G/DL
- URIC ACID [2]: 0.52 mg/dL
- ABSOLUTE BASOPHIL [3]: 0 CELLS/uL
- ABSOLUTE EOSINOPHIL [3]: 88 CELLS/uL
- ABSOLUTE LYMPHOCYTE [3]: 7063.33 CELLS/uL
- ABSOLUTE MONOCYTE [3]: 150.67 CELLS/uL
- ABSOLUTE SEGMENTED NEUTROPHIL [3]: 964.67 CELLS/uL
- BASOPHIL [3]: 0%
- EOSINOPHIL [3]: 1%
- ERYTHROCYTE COUNT [3]: 5.19 x10E6/uL
- HEMATOCRIT [3]: 32.23%
- HEMOGLOBIN [3]: 12.9 G/DL
- LEUKOCYTE COUNT [3]: 8.27 x10E3/uL
- LYMPHOCYTE [3]: 86%
- MEAN CORPUSCULAR HEMOGLOBIN [3]: 24.93 pg
- MEAN CORPUSCULAR HEMOGLOBIN CONCENTRATION [3]: 40.13 G/DL
- MEAN CORPUSCULAR VOLUME [3]: 62.1 fL
- MONOCYTE [3]: 1.67%
- NEUTROPHIL [3]: 11.33%
- NUCLEATED RED BLOOD CELLS [3]: 0 /100WBC
- PLATELET COUNT [3]: 924.33 x10E3/uL
- ALANINE AMINOTRANSFERASE [3]: 226.67 u/L
- ALBUMIN [3]: 4.2 G/DL
- ALKALINE PHOSPHATASE [3]: 729 u/L
- ASPARTATE AMINOTRANSFERASE [3]: 518.67 u/L
- BLOOD UREA NITROGEN [3]: 15 mg/dL
- CARBON DIOXIDE [3]: 26.33 mmol/L
- CHLORIDE [3]: 103 MEQ/L
- CHOLESTEROL [3]: 70.67 mg/dL
- CREATINE PHOSPHOKINASE [3]: 416.67 u/L
- CREATININE [3]: 0.17 mg/dL
- GLUCOSE [3]: 160 mg/dL
- LACTATE DEHYDROGENASE [3]: 414.67 u/L
- LIPASE [3]: 12 u/L
- PHOSPHORUS [3]: 10 mg/dL
- POTASSIUM [3]: 4.92 MEQ/L
- SODIUM [3]: 144.23 MEQ/L
- TOTAL BILIRUBIN [3]: 0.37 mg/dL
- TOTAL PROTEIN [3]: 5.67 G/DL
- URIC ACID [3]: 0.67 mg/dL
